Values of other authors as cited in patent US20060247361A1, “Polar functionalized polymer modified porous substrate for solid phase extraction” (priority 2005, published 2006).
Counter-ions that a name gives are not always drawn.

Structure (SMILES)	Log P
CNCCC=C1c2ccccc2CCc2ccccc21 [Nortriptyline]	4.74
CC(C)(C)NCC(O)c1ccc(O)c(CO)c1 (stereo not shown) [Salbutamol]	0.97
CC(C)(C)NC[C@H](O)COc1nsnc1N1CCOCC1 [Timolol maleate]	1.83

Further lines, results first:

Log P	Structure (SMILES)
3.89	CN(C)CCC(c1ccc(Br)cc1)c1ccccn1 (stereo not shown) [Brompheniramine]
3.38	CN(C)CCC(c1ccc(Cl)cc1)c1ccccn1 (stereo not shown) [Chlorpheniramine maleate]
3.85	CN1CCN2c3ccccc3Cc3ccccc3C2C1 (stereo not shown) [Mianserin]
3.75	NCCC(Oc1ccc(C(F)(F)F)cc1)c1ccccc1 (stereo not shown) [Norfluoxetine]
